The record followed here is ChEMBL document CHEMBL3871286, “Tetrahydroquinoline-based tricyclic amines as potent and selective agonists of the 5-HT2C receptor” (Bioorg Med Chem Lett, 2016).

For data set [1], the target named is T1, 5-hydroxytryptamine receptor 2C (Homo sapiens, UniProt P28335).
T1 sequence (P28335 whole entry): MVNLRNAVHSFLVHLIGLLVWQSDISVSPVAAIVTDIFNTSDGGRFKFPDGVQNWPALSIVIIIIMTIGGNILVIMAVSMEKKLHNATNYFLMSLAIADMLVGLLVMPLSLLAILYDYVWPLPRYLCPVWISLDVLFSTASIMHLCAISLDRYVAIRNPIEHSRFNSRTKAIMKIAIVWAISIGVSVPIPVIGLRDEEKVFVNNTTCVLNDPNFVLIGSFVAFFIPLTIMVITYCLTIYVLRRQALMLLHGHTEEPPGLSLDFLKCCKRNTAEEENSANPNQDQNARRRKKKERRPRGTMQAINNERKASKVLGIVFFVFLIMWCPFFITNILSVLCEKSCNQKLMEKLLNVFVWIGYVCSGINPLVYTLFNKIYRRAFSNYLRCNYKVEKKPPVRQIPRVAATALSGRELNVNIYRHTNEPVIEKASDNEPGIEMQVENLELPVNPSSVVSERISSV
The experiment in a line: Agonist activity at unedited 5-HT2C receptor (unknown origin) expressed in HEK293 cells assessed as [3H]inositol phosphate accumulation after 2 hrs by scintillation counting. The format is functional, cell-based.

For data set [2], the target named is 5-hydroxytryptamine receptor 2B (Homo sapiens, UniProt P41595). The experiment in a line: Agonist activity at 5-HT2B receptor (unknown origin) expressed in HEK293 cells assessed as [3H]inositol phosphate accumulation after 2 hrs by scintillation counting. The format is cell-based.
Chain of 5-hydroxytryptamine receptor 2B (P41595 whole entry): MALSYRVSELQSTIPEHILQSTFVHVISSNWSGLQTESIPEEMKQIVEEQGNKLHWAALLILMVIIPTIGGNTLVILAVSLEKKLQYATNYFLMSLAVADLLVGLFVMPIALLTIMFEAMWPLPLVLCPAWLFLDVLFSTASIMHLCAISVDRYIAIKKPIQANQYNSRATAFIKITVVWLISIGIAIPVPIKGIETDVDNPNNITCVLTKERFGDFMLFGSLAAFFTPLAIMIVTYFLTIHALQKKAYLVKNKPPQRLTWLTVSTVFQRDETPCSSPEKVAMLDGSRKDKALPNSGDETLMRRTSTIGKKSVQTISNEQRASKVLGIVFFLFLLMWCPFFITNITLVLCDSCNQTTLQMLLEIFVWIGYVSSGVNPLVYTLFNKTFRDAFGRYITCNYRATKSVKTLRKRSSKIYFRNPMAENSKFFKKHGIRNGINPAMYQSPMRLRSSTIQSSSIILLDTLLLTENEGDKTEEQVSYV
The next data set has as its target 5-HT2B receptor (Homo sapiens, UniProt P41595). The experiment in a line: Agonist activity at 5-HT2B receptor (unknown origin) expressed in HEK293 cells assessed as [3H]inositol phosphate accumulation at 10 uM after 2 hrs by scintillation counting relative to serotonin. The format is cell-based. Particulars: HEK293 cells expressing 5-HT2B receptor.
Data set [3] deals with T2, 5-hydroxytryptamine receptor 2C (Homo sapiens) (UniProt P28335).
T2 sequence (whole entry): T1 sequence (P28335 whole entry)
The experiment in a line: Agonist activity at unedited 5-HT2C receptor (unknown origin) expressed in HEK293 cells assessed as [3H]inositol phosphate accumulation at 10 uM after 2 hrs by scintillation counting relative to serotonin. The class given is functional, cell-based.

Chain of 5-HT2B receptor (P41595 whole entry): as above

Take `Cc1cccc2c1N1CCNCC1CC2` (centres undefined): the values for the EC50 in data set [1] (read-out: pEC50 (converted)) and in data set [2] were 63.1 nM and 50.1 nM, respectively. For the same compound, the Emax (usually the greatest response seen or fitted, relative to the assay's reference) at 2 h, 10 µM on 5-HT2B receptor was 10%. Also, in data set [3], the Emax worked out at 86%.

For the compound `c1ccc2c(c1)CC[C@H]1CCNCCCN21`, the EC50 in data set [1] (read-out: pEC50 (converted)) and in data set [2] was above 10000 nM in each case.

Consider `Clc1ccc2c(c1)CCC1CCNCCCN21` (centres undefined), for which the EC50 in data set [1] (read-out: pEC50 (converted)) is 200 nM; in data set [2] it was 631 nM. The maximal effect (Emax) at 2 h, 10 µM on 5-HT2B receptor is 71%. The Emax in data set [3] amounted to 83%.

Turning to `c1ccc2c(c1)CCC1CCNCCCN21` (centres undefined), the EC50 is 130 nM in data set [1] (read-out: EC50) and 1000 nM in data set [2]. Moreover, at 5-HT2B receptor, the Emax at 2 h, 10 µM stood at 60%. The Emax in data set [3] was 99%.

For `c1cc(CC2CCC2)c2c(c1)N1CCCNCC1CC2` (centres undefined), the EC50 in data set [1] (read-out: pEC50 (converted)) was 126 nM; in data set [2] it was above 1000 nM. The Emax in data set [3] turned out to be 116%.

For the compound `Cc1cccc2c1CCC1CNCCN21` (centres undefined), the values for the EC50 in data set [1] (read-out: pEC50 (converted)) and in data set [2] were 2 nM and 31.6 nM, respectively. For the same compound, on 5-HT2B receptor, the Emax at 2 h, 10 µM turned out to be 65%. The Emax in data set [3] was determined as 108%.

Regarding `COc1cc2c(cc1Cl)N1CCCNC[C@H]1CC2`, the figures for the EC50 in data set [1] (read-out: pEC50 (converted)) and in data set [2] were 39.8 nM and 158 nM, respectively. Besides, on 5-HT2B receptor, the Emax at 2 h, 10 µM came out at 23%. For the same compound, the Emax in data set [3] amounted to 91%.

For the compound `Fc1ccc2c(c1Cc1ccccc1)CC[C@@H]1CNCCCN21`, the EC50 in data set [1] (read-out: pEC50 (converted)) is 20 nM; in data set [2], 7940 nM. The Emax at 2 h, 10 µM on 5-HT2B receptor amounted to 71%. For the same compound, the Emax in data set [3] was 108%.

With `CCSc1cccc2c1CCC1CNCCN21` (centres undefined), the EC50 in data set [1] (read-out: pEC50 (converted)) is 0.316 nM; in data set [2] it was 79.4 nM. The Emax at 2 h, 10 µM at 5-HT2B receptor worked out at 46%. In addition, the Emax in data set [3] worked out at 101%.

In the case of `COc1ccc2c(c1)CCC1CNCCN21` (centres undefined), the EC50 in data set [1] (read-out: pEC50 (converted)) is 251 nM; in data set [2], 794 nM. In addition, the maximal response (Emax) at 2 h, 10 µM at 5-HT2B receptor amounted to 57%. The Emax in data set [3] stood at 101%.

Consider `COCc1cccc2c1CCC1CNCCN21` (centres undefined), for which the EC50 in data set [1] (read-out: pEC50 (converted)) is 20 nM; in data set [2] it was 1260 nM. The Emax at 2 h, 10 µM at 5-HT2B receptor was determined as 77%. In data set [3], the Emax was 113%.

On to `COc1cccc2c1CC[C@@H]1CNCCCN21`, for which the EC50 is 1000 nM in data set [1] (read-out: pEC50 (converted)) and 398 nM in data set [2]. Moreover, the Emax at 2 h, 10 µM on 5-HT2B receptor turned out to be 74%. In data set [3], the maximum response (Emax) amounted to 92%.

Consider `c1ccc2c(c1)CC[C@@H]1CNCCN21`, for which the values for the EC50 in data set [1] (read-out: pEC50 (converted)) and in data set [2] were 2.51 nM and 63.1 nM, respectively. In addition, the maximum response (Emax) at 2 h, 10 µM at 5-HT2B receptor was 28%. Also, the Emax in data set [3] was found to be 97%.

For the compound `Clc1cccc2c1N1CCCNCCC1CC2` (centres undefined), the EC50 in data set [1] (read-out: pEC50 (converted)) is 25.1 nM; in data set [2], 100 nM. Besides, the Emax at 2 h, 10 µM on 5-HT2B receptor amounted to 20%. Further, in data set [3], the maximal response (Emax) was 85%.

As for `COc1cc2c(cc1Cl)CC[C@@H]1CNCCCN21`, the EC50 is 3.98 nM in data set [1] (read-out: pEC50 (converted)) and 63.1 nM in data set [2]. On 5-HT2B receptor, the Emax at 2 h, 10 µM was determined as 84%. Further, in data set [3], the Emax came out at 85%.

Regarding `c1cc(C2CCC2)c2c(c1)N1CCNCC1CC2` (centres undefined), the EC50 in data set [1] (read-out: pEC50 (converted)) was 3.16 nM; in data set [2], 39.8 nM. The Emax at 2 h, 10 µM on 5-HT2B receptor stood at 112%. The Emax in data set [3] came out at 110%.

Take `CCCc1ccc2c(c1)N1CCNCC1CC2` (centres undefined): the EC50 is 63.1 nM in data set [1] (read-out: pEC50 (converted)) and 200 nM in data set [2]. In addition, the Emax at 2 h, 10 µM on 5-HT2B receptor was 19%. Also, in data set [3], the Emax is 87%.

As to `COc1ccc2c(c1Cl)N1CCCNC[C@H]1CC2`, the EC50 in data set [1] (read-out: pEC50 (converted)) is 158 nM; in data set [2], 7.94 nM. The Emax at 2 h, 10 µM on 5-HT2B receptor was found to be 7%. Moreover, the Emax in data set [3] came out at 72%.

Take `CC1(C)Cc2ccccc2N2CCNCC21` (centres undefined): the EC50 in data set [1] (read-out: pEC50 (converted)) and in data set [2] was above 1000 nM throughout.

With `COc1cc2c(cc1Cc1ccccc1)CC[C@@H]1CNCCCN21`, the EC50 in data set [1] (read-out: pEC50 (converted)) and in data set [2] was above 1000 nM in each case.

As for `COc1cc2c(c(Cl)c1Cl)N1CCCNC[C@H]1CC2`, the EC50 in data set [1] (read-out: pEC50 (converted)) is 10 nM. The Emax at 2 h, 10 µM at 5-HT2B receptor is below 5%. Besides, the Emax in data set [3] turned out to be 80%.

In the case of `CC1(C)CC2CNCCN2c2ccccc21` (centres undefined), the EC50 in data set [1] (read-out: pEC50 (converted)) was 1260 nM; in data set [2], above 10000 nM. Further, the Emax in data set [3] stood at 84%.
